These are literature values, as cited in patent US20060257875A1, “Affinity screening using "one-bead-one-compound" libraries” (Carlsberg A/S, priority 2003, published 2006).

In the series the target is T1, Phosphomannose isomerase (Candida albicans, UniProt P34948).
T1 sequence (P34948 1-441): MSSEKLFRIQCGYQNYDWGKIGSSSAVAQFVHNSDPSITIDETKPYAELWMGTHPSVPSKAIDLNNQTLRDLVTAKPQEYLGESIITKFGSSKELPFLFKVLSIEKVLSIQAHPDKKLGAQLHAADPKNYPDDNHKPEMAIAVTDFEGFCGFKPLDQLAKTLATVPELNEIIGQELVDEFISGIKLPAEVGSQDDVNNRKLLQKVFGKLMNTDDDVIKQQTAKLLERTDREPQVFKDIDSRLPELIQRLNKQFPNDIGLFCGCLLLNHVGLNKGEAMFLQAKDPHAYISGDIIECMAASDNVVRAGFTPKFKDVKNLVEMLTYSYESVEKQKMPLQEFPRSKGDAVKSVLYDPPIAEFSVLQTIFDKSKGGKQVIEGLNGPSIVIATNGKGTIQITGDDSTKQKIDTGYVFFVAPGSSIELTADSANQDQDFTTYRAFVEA
Particulars: in Candida; Wells et al, 1996; cited from earlier work.

Each structure is given as a SMILES string.

For the molecule `Nc1ccc(S(=O)(=O)Nc2ncccn2)cc1` [sulfadiazene], the “inhibition of phosphomannose isomerase” value was “inhibited”.
